# From US12509453B2, “BRM/BRG1 inhibitors and uses thereof” (Foghorn Therapeutics Inc., priority 2019, dated 2025)
# What was measured:
# [1] = target: T1, BRG-1 (Homo sapiens, UniProt P51532); assay: ATPase catalytic activity assay (ADP-Glo), BRG-1; format: biochemical; conditions: 30 nM BRG-1, 400 μM ATP; for IC50: 20 nM salmon sperm DNA, read-out: BRG1 IP50 (μM)*; for Emax: read-out: BRG1 Max % Inhibition
# T1 construct: made in house; host or cells: High Five insect cells
# Experimental: (§1) The ATPase catalytic activity of BRM or BRG-1 was measured by the in vitro biochemical assay using ADP-Glo™ (Promega, V9102). The ADP-Glo™ kinase assay is performed in two steps once the reaction is complete. The first step is to deplete any unconsumed ATP in the reaction. The second step is to convert the reaction product ADP to ATP, which will be utilized by the luciferase to generate luminesce and be detected by a luminescence reader, such as Envision.
# (§2) The assay reaction mixture (10 μL) contains 30 nM of BRM or BRG-1, 20 nM salmon sperm DNA (from Invitrogen, UltraPure™ Salmon Sperm DNA Solution, cat #15632011), and 400 μM of ATP in the ATPase assay buffer, which comprises of 20 mM Tris, pH 8, 20 mM MgCl2, 50 mM NaCl, 0.1% Tween-20, and 1 mM fresh DTT (Pierce™ DTT (Dithiothreitol), cat #20290). The reaction is initiated by the addition of the 2.5 μL ATPase solution to 2.5 μL ATP/DNA solution on low volume white Proxiplate-384 plus plate (PerkinElmer,cat #6008280) and incubates at room temperature for 1 hour. Then following addition of 5 μL of ADP-Glo™ Reagent provided in the kit, the reaction incubates at room temperature for 40 minutes. Then 10 μL of Kinase Detection Reagent provided in the kit is added to convert ADP to ATP, and the reaction incubates at room temperature for 60 minutes. Finally, luminescence measurement is collected with a plate-reading luminometer, such as Envision.
# as §1, with “The” for “The ATPase catalytic activity of BRM or BRG-1 was measured by the in vitro biochemical assay using ADP-Glo™ (Promega, V9102). The”
# as §2, with “BRG1,” for “BRG-1,”
# [2] = target: T2, BRM (Homo sapiens, UniProt P51531); assay: ATPase catalytic activity assay (ADP-Glo), BRM; format: biochemical; conditions: 30 nM BRM, 400 μM ATP; for IC50: 20 nM salmon sperm DNA, read-out: BRM IP50 (μM)*
# T2 construct: made in house; host or cells: High Five insect cells
# T2 sequence (P51531 whole entry): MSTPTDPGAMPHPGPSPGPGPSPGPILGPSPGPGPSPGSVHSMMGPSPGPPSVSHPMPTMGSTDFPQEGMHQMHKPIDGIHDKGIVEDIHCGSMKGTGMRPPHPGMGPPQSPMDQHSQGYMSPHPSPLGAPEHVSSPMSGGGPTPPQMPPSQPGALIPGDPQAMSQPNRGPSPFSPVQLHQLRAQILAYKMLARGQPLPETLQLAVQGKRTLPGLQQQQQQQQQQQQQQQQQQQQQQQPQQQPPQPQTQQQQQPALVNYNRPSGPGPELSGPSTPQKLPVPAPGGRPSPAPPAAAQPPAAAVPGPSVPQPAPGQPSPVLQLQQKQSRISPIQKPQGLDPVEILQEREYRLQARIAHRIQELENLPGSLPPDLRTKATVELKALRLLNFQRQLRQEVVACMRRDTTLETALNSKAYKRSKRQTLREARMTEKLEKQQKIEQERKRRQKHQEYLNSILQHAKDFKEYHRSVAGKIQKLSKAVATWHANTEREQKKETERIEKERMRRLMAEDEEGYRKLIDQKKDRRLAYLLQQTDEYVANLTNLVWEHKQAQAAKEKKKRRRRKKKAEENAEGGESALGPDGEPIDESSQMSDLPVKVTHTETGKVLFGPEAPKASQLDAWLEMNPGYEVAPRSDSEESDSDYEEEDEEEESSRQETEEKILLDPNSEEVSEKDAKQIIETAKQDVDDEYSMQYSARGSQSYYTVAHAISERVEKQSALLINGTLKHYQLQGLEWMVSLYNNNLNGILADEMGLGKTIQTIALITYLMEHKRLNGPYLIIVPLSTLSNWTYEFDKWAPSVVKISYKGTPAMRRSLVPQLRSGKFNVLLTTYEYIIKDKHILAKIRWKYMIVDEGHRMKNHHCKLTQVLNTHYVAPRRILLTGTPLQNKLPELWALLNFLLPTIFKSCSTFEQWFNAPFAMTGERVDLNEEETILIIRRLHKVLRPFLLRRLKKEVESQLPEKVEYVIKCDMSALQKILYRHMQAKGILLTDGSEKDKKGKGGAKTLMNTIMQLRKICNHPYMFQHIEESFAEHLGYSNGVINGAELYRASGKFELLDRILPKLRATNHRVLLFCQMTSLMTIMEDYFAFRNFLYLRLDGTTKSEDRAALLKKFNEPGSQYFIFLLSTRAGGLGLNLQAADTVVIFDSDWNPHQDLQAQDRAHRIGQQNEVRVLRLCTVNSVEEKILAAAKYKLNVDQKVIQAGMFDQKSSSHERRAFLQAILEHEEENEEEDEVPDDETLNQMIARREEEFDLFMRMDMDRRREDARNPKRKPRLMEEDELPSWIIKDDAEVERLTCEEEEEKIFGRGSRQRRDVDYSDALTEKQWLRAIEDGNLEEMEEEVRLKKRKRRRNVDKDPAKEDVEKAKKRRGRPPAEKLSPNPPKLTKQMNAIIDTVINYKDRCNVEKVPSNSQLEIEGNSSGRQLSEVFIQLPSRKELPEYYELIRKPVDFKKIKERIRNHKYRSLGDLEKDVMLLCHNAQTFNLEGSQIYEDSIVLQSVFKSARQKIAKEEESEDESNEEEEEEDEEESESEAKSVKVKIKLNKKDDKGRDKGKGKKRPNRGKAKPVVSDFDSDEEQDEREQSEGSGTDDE
# Experimental: as §1, §2
# as §1, with “The” for “The ATPase catalytic activity of BRM or BRG-1 was measured by the in vitro biochemical assay using ADP-Glo™ (Promega, V9102). The”
# as §2, with “BRG1,” for “BRG-1,”
# T1 sequence (P51532 whole entry): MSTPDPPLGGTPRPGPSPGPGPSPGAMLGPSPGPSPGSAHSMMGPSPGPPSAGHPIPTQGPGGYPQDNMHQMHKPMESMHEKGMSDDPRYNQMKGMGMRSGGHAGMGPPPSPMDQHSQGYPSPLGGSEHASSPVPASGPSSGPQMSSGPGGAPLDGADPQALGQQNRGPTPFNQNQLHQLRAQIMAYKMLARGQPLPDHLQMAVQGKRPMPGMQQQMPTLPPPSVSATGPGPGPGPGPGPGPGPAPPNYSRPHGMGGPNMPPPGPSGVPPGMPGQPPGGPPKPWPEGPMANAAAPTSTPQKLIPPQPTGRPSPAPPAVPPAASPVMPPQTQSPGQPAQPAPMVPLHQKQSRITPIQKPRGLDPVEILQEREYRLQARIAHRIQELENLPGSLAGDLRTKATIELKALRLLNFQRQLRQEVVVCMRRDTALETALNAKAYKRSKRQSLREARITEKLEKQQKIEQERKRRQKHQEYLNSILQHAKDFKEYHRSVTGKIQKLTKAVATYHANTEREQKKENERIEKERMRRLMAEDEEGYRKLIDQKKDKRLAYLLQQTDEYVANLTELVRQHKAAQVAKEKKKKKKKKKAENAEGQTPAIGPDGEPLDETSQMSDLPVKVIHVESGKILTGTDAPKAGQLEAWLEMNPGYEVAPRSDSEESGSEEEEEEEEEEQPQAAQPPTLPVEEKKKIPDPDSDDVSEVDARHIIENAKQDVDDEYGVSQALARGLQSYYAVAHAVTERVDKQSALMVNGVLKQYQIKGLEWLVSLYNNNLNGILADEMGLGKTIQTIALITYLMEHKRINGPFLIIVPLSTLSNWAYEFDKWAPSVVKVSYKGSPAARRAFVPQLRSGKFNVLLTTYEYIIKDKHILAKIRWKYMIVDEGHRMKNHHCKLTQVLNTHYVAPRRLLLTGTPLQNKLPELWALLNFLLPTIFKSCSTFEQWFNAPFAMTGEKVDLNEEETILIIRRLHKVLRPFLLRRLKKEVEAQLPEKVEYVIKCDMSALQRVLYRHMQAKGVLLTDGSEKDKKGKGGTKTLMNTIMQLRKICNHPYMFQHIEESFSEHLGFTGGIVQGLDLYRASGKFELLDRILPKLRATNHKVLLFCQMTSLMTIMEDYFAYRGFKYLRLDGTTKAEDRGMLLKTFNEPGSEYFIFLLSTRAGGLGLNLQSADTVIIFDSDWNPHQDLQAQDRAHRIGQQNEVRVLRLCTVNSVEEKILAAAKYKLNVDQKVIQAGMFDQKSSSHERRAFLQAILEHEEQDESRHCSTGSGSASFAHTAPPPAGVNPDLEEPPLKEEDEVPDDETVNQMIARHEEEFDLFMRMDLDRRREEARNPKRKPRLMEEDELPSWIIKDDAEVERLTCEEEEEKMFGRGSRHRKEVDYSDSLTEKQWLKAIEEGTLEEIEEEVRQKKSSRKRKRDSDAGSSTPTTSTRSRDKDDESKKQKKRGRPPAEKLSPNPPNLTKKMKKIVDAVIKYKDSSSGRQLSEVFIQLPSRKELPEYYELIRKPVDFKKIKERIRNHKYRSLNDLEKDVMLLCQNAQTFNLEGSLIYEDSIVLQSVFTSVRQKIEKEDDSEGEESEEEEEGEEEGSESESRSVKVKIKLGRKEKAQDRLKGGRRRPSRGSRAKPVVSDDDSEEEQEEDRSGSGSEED
IC50 [1] [µM],Emax [1] [%],BRM Max % Inhibition [2] [%],IC50 [2] [µM],Compound
1 to 5,> 60,>90,< 0.1,"Cc1cc(-c2cccc(-c3csc(NC(=O)CNC(=O)c4cn(S(=O)(=O)C(C)C)c5ccccc45)n3)c2)cc(C)n1 [Compound 34, N-(2-((4-(3-(2,6-dimethylpyridin-4-yl)phenyl)thiazol-2-yl)amino)-2-oxoethyl)-1-(isopropylsulfonyl)-1H-indole-3-carboxamide]"
< 0.1,> 60,>80,< 0.1,"Cc1cn(S(C)(=O)=O)cc1C(=O)NCC(=O)Nc1nc(-c2cccc(-c3ccncc3)c2)cs1 [Compound 9, 4-methyl-1-(methylsulfonyl)-N-(2-oxo-2-((4-(3-(pyridin-4-yl)phenyl)thiazol-2-yl)amino)ethyl)-1H-pyrrole-3-carboxamide]"
0.1 to 1,> 60,>80,0.1 to 1,"Cc1cc(-c2cccc(-c3csc(NC(=O)CNC(=O)c4cc(Cl)n(S(=O)(=O)C(C)C)c4)n3)n2)ncn1 [Compound 27, 5-chloro-1-(isopropylsulfonyl)-N-(2-((4-(6-(6-methylpyrimidin-4-yl)pyridin-2-yl)thiazol-2-yl)amino)-2-oxoethyl)-1H-pyrrole-3-carboxamide]"
1 to 5,> 50,>80,0.1 to 1,"CC(C)S(=O)(=O)n1cc(C(=O)NCC(=O)Nc2nc(-c3cccc(N4CCC(O)CC4)c3)cs2)cc1Cl [Compound 40, 5-chloro-N-(2-((4-(3-(4-hydroxypiperidin-1-yl)phenyl)thiazol-2-yl)amino)-2-oxoethyl)-1-(isopropylsulfonyl)-1H-pyrrole-3-carboxamide]"
0.1 to 1,> 80,>95,< 0.1,"Cc1cc(-c2cccc(-c3csc(NC(=O)CNC(=O)c4cn(S(=O)(=O)C(C)C)c(C)c4C)n3)c2)cc(C)n1 [Compound 12, N-(2-((4-(3-(2,6-dimethylpyridin-4-yl)phenyl)thiazol-2-yl)amino)-2-oxoethyl)-1-(isopropylsulfonyl)-4,5-dimethyl-1H-pyrrole-3-carboxamide]"
> 5,< 30,>95,0.1 to 1,"Cc1cc(-c2cccc(-c3csc(NC(=O)CNC(=O)c4cn(S(=O)(=O)C(C)C)c5c4CCCC5)n3)c2)cc(C)n1 [Compound 20, N-(2-((4-(3-(2,6-dimethylpyridin-4-yl)phenyl)thiazol-2-yl)amino)-2-oxoethyl)-1-(isopropylsulfonyl)-4,5,6,7-tetrahydro-1H-indole-3-carboxamide]"
< 0.1,> 95,>95,< 0.1,Cc1nccc(-c2cccc(-c3csc(NC(=O)CNC(=O)c4cc(C)n(S(=O)(=O)C(C)C)c4)n3)c2)n1 [Compound 16]
1 to 5,> 60,>90,0.1 to 1,"C[C@@H]1CN(c2cccc(-c3csc(NC(=O)CNC(=O)c4cn(S(C)(=O)=O)c5ccccc45)n3)c2)C[C@H](C)O1 [Compound 26, N-(2-((4-(3-((cis)-2,6-dimethylmorpholino)phenyl)thiazol-2-yl)amino)-2-oxoethyl)-1-(methylsulfonyl)-1H-indole-3-carboxamide]"
1 to 5,> 70,>95,0.1 to 1,"Cc1cc(C(=O)NCC(=O)Nc2nc(-c3cccc(N4C[C@@H](C)O[C@@H](C)C4)n3)cs2)cn1S(=O)(=O)C(C)C [Compound 38, N-(2-((4-(6-((cis)-2,6-dimethylmorpholino)pyridin-2-yl)thiazol-2-yl)amino)-2-oxoethyl)-1-(isopropylsulfonyl)-5-methyl-1H-pyrrole-3-carboxamide]"
0.1 to 1,> 90,>95,< 0.1,"Cc1cc(-c2cccc(-c3csc(NC(=O)CNC(=O)c4cn(S(C)(=O)=O)c5ccccc45)n3)c2)cc(C)n1 [Compound 33, N-(2-((4-(3-(2,6-dimethylpyridin-4-yl)phenyl)thiazol-2-yl)amino)-2-oxoethyl)-1-(methylsulfonyl)-1H-indole-3-carboxamide]"
0.1 to 1,> 80,>95,< 0.1,"Cc1cc(-c2cccc(-c3csc(NC(=O)CNC(=O)c4cn(S(C)(=O)=O)c5c4CCCC5)n3)c2)cc(C)n1 [Compound 35, N-(2-((4-(3-(2,6-dimethylpyridin-4-yl)phenyl)thiazol-2-yl)amino)-2-oxoethyl)-1-(methylsulfonyl)-4,5,6,7-tetrahydro-1H-indole-3-carboxamide]"
> 5,< 30,>80,0.1 to 1,"CC(C)S(=O)(=O)n1cc(C(=O)NCC(=O)Nc2nc(-c3cccc(N4C[C@@H](C)O[C@@H](C)C4)c3)cs2)c2ccccc21 [Compound 31, N-(2-((4-(3-((cis)-2,6-dimethylmorpholino)phenyl)thiazol-2-yl)amino)-2-oxoethyl)-1-(isopropylsulfonyl)-1H-indole-3-carboxamide]"
1 to 5,< 30,>80,0.1 to 1,"CS(=O)(=O)n1cc(C(=O)NCC(=O)Nc2nc(-c3cccc(N4CCC(O)CC4)c3)cs2)c2ccccc21 [Compound 39, N-(2-((4-(3-(4-hydroxypiperidin-1-yl)phenyl)thiazol-2-yl)amino)-2-oxoethyl)-1-(methylsulfonyl)-1H-indole-3-carboxamide]"
> 5,> 40,>40,> 5,"CS(=O)(=O)n1cc(C(=O)NCC(=O)Nc2nc(-c3cccc(-c4ccncc4)c3)cs2)c2ncccc21 [Compound 3, 1-(methylsulfonyl)-N-(2-oxo-2-((4-(3-(pyridin-4-yl)phenyl)thiazol-2-yl)amino)ethyl)-1H-pyrrolo[3,2-b]pyridine-3-carboxamide]"
0.1 to 1,> 90,>95,< 0.1,"Cc1cc(-c2cccc(-c3csc(NC(=O)CNC(=O)c4cc(Cl)n(S(=O)(=O)C(C)C)c4)n3)c2)nc(C)n1 [Compound 32, 5-chloro-N-(2-((4-(3-(2,6-dimethylpyrimidin-4-yl)phenyl)thiazol-2-yl)amino)-2-oxoethyl)-1-(isopropylsulfonyl)-1H-pyrrole-3-carboxamide]"
0.1 to 1,> 90,>95,< 0.1,"Cc1nccc(-c2cccc(-c3csc(NC(=O)CNC(=O)c4cc(Cl)n(S(=O)(=O)C(C)C)c4)n3)c2)n1 [Compound 41, 5-chloro-1-isopropylsulfonyl-N-[2-[[4-[3-(2-methylpyrimidin-4-yl)phenyl]thiazol-2-yl]amino]-2-oxo-ethyl]pyrrole-3-carboxamide]"
1 to 5,> 40,>80,0.1 to 1,"Cc1nccc(-c2cccc(-c3csc(NC(=O)CNC(=O)c4cn(S(C)(=O)=O)c5ccccc45)n3)n2)n1 [Compound 22, N-(2-((4-(6-(2-methylpyrimidin-4-yl)pyridin-2-yl)thiazol-2-yl)amino)-2-oxoethyl)-1-(methylsulfonyl)-1H-indole-3-carboxamide]"

Compound,IC50 [1] [µM],Emax [1] [%],BRM Max % Inhibition [2] [%],IC50 [2] [µM]
"CC(C)S(=O)(=O)n1cc(C(=O)NCC(=O)Nc2nc(-c3cccc(-c4ccncc4)c3)cs2)c2ccccc21 [Compound 4, 1-(isopropylsulfonyl)-N-(2-oxo-2-((4-(3-(pyridin-4-yl)phenyl)thiazol-2-yl)amino)ethyl)-1H-indole-3-carboxamide]",> 5,,>60,0.1 to 1
